Values joined by “and” are separate entries in the source; they are usually repeats but may differ in a detail not shown here. Equal values may be shown once.
Details: Liquid, Transpiration method

COCCOCCOCCOc1ccccc1Br [1-bromo-2-(2-(2-(2-methoxyethoxy)ethoxy)ethoxy)benzene]
Details	vapor or sublimation pressure [kPa]
333.2 K	6.1e-05
337.3 K	8.8e-05
339.3 K	0.000111
341.3 K	0.000132
343.4 K	0.000158
345.5 K	0.000188
347.5 K	0.000218
349.7 K	0.000272
351.7 K	0.000329
353.6 K	0.000382
355.7 K	0.000446
357.8 K	0.000555
359.8 K	0.000649
360.6 K	0.000704
362 K	0.000796
363 K	0.000826
365 K	0.000993
367.9 K	0.001244
369.9 K	0.001446

COCCOCCOc1ccccc1Br [1-bromo-2-(2-(2-methoxyethoxy)ethoxy)benzene]
Details	vapor or sublimation pressure
310.4 K	9e-05 kPa
313.2 K	0.00012 kPa
317.4 K	0.00016 kPa
318.6 K	0.00019 kPa
320.3 K	0.00021 kPa
322.6 K	0.00026 kPa
324.3 K	0.0003 kPa
325.4 K	0.00036 kPa
327.6 K	0.00043 kPa
327.7 K	0.00043 kPa
328.3 K	0.00047 kPa and 0.00045 kPa
329 K	0.00045 kPa
332.4 K	0.00063 kPa
332.5 K	0.00062 kPa
332.7 K	0.00063 kPa
334.5 K	0.00076 kPa
335.4 K	0.00081 kPa
337.9 K	0.00096 kPa
339.1 K	0.00113 kPa
342 K	0.00135 kPa
343.5 K	0.00153 kPa
345 K	0.00167 kPa
346.5 K	0.00205 kPa
347.6 K	0.00219 kPa
348 K	0.0022 kPa
349.5 K	0.00252 kPa
350.1 K	0.00253 kPa
350.6 K	0.0028 kPa
353 K	0.00325 kPa
355.1 K	0.00383 kPa
356 K	0.0041 kPa
359.2 K	0.0052 kPa
360.3 K	0.00566 kPa
361.1 K	0.00611 kPa
363.3 K	0.007 kPa
365.2 K	0.00835 kPa
368.4 K	0.01027 kPa and 0.01025 kPa
370.8 K	0.01177 kPa
373.5 K	0.01407 kPa

COCCOc1ccccc1Br [1-bromo-2-(2-methoxyethoxy)benzene]
Details	vapor or sublimation pressure
302.4 K	0.0011 kPa
307.4 K	0.00174 kPa
312.4 K	0.00268 kPa
315 K	0.00321 kPa
317.5 K	0.00391 kPa
319.5 K	0.00453 kPa and 0.00475 kPa
322.6 K	0.0062 kPa
324.6 K	0.00691 kPa
327.6 K	0.00867 kPa
332.7 K	0.01255 kPa
337.8 K	0.01854 kPa
343 K	0.02628 kPa
348.1 K	0.03518 kPa
353.2 K	0.04763 kPa
356.3 K	0.05583 kPa
358.2 K	0.06719 kPa
360.7 K	0.07401 kPa
361.8 K	0.07914 kPa
363.3 K	0.08516 kPa
366.8 K	0.1095 kPa
368.4 K	0.1199 kPa

Source: the NIST ThermoML archive (doi:10.1016/j.fluid.2006.09.001)
